Results on one molecule are retold here after paper PMC12013366, “In vitro evaluation of the immunogenic potential of gramicidin S and its photocontrolled analogues” (RSC Medicinal Chemistry, 2025).

A short description of data set [1]: Cytotoxicity, two-dimensional (monolayer) assay. It counts as cell-based. The following applies: human, HEK-293 cells, HEK-293 monolayer, necrotic cells by PI/Hoechst 33342 imaging, ± SEM, n=4, read-out: IC50, cytotoxic activity, two-dimensional assay; for IC50 at 10 min: 10 mins incubation; for IC50 at 1 h: 1 h incubation; for IC50 at 24 h: 24 hrs incubation; for IC50 at 72 h: 72 hrs incubation. Here is the method: Screening of the cytotoxic activity of compounds in a two-dimensional (2D) format was designed in accordance with the previously obtained data[32] for the HeLa cell line. The cytotoxic action of peptides was quantified in the 96-well plate format at four time points after adding compounds – at 10 min, 1 h, 24 h and 72 h. […] The selected IC50 values for different incubation times are exemplified in Fig. 2.
(§1) Essential experimental details have been previously published by us.[79]
The cells were maintained in a culture till 70–80% confluence was reached and then seeded in a 96-well black-wall transparent-bottom plate (6055302, Revvity) with 200 μL of appropriate medium per well. The seeding density has been previously determined in the optimization experiments for each cell line: 3500 cells per well for 4T1; 20 000 cells per well for HEK-293; 20 000 cells per well for HeLa; 25 000 cells per well for HepG2; 8000 cells per well for LLC; 15 000 cells per well for MDA-MB-231. After 24 h incubation at 37 °C, the medium was removed and 100 μL of fresh medium was added. Two-fold serial dilution of compounds (256–0.5 μM, 11 points for closed forms of photoswitchable peptides; 128–0.25 μM, 11 points for open forms; 64–0.5, 8 points for GS) in the medium was prepared and dispensed in 100 μL per well. The plates were incubated with compounds for 10 min, 1 h, 24 h and 72 h. The staining solution consisting of 25 μM of Hoechst 33342 (62249, Thermo Fisher), 5 μM of propidium iodide (J66764-MC, Thermo Fisher) or ethidium homodimer-1 (E1169, Thermo Fisher), with 10% FBS in DPBS (21600044, Thermo Fisher) was prepared and added to wells in a volume of 50 μL for 20 min. Fluorescence images were acquired using an INCell Analyzer 6500 HS automatic imaging system with 20× objective lens (NA = 0.45) and 16 fields of view (FOV) per well. The numerical data were obtained using INCarta 1.13 and then analysed using GraphPad Prism 10.

Data set [2] can be described thus: Cytotoxicity, three-dimensional (spheroid) assay. It counts as cell-based. The following applies: human, HEK-293 spheroids, calcein-AM/PI/Hoechst 33342 confocal imaging, Table S3 (with LMB033), ± SEM, n=5, read-out: IC50, cytotoxic activity, three-dimensional (spheroid) assay.
Source text: (§2) For the experiments with the three-dimensional (3D) cultures, we used a 384-well plate format and applied the protocol introduced by Sirenko et al.,[35] with a few modifications. First, we used the ultra-low adhesion plates to ensure reproducible spheroid formation. Second, we decided to co-stain the cells with calcein-AM to obtain more information on the processes occurring in spheroids upon the addition of cytolytic peptides. Calcein-AM stains metabolically active cells and helps to identify the fraction of necrotic cells that is essential for the accurate determination of the IC50 values (Fig. 3). Three time points of incubation of spheroids with the peptides (10 min, 24 h and 72 h) were chosen for the experiments. The IC50 values and the closed/open isomer activity ratios (Table 2) were calculated, as in the monolayer cell culture experiments.
as §1
(§3) The cells were maintained identically to a 2D cell culture protocol. After counting, the cells were seeded in 50 μL of medium in an ultralow attachment U-bottom black-wall 384-well plate (3830, Corning). The seeding density was chosen to obtain spheroids after 48 h of incubation that are compact enough to fit into 20× objective field of view (<800–1000 μm in diameter) after incubation with compounds. We seeded 2000 cells per well for 4T1 and 1000 cells per well for HEK-293, HeLa, HepG2, LLC and MDA-MB-231. After seeding, the plate was centrifuged at 40 g for 30 s and additionally shaken at 250 rpm for 1 min to shake all the cells off the walls of a well. After 48 h, the compounds were dispensed in 20 μL of medium (500, 100, 50, 5 and 1 μM for closed peptide photoforms; 100, 50, 10, 1 and 0.5 μM for open photoforms and GS). At 10 min, 24 h and 72 h post addition of compounds, the staining solution consisting of 112.5 μM of Hoechst 33342, 4.5 μM of calcein-AM (C1430, Thermo Fisher), 13.5 μM of propidium iodide and 10% of FBS in DPBS was added in 20 μL for 2 h. The fluorescent imaging was conducted in the confocal mode with a 20× objective lens and z-stack of 12–15 images with a 10 μm step. The collected data were processed using INCarta 1.13 and analyzed using GraphPad Prism 10.

A further data set has as its system HeLa spheroids. The data set is described as follows: Cytotoxicity, three-dimensional (spheroid) assay. To be noted: human. It counts as cell-based.
Source text: as §2, §1, §3

Data set [3] deals with HMGB1 released by HepG2 cells. The data set is described as follows: HMGB1 release, bioluminescence immunoassay (Lumit HMGB1) in the supernatant. It counts as cell-based, human. To be noted: 64 μM, n=3. Here is the method: HMGB1 was quantified (using a calibration curve) by a bioluminescence assay in the supernatant.
For this, 25 000 cells per well of HepG2 were seeded in 200 μL of complete DMEM in a 96-well black-wall transparent-bottom plate (655090, Greiner). After 24 h, the medium was aspired, and 100 μL of DPBS was added for rinsing and then aspired. Then, 100 μL of Leibovitz L-15 medium that contained 10% FBS was added. After that, 2× concentrated solutions of tested compounds (64 and 8 μM, triplicates for each time point) were prepared in the same Leibovitz L-15 medium in an intermediate plate and dispensed in a volume of 100 μL to the cell-containing plate. The calibration curve was constructed using a HMGB1 stock solution (1000–0.24 ng mL^−1, 4-fold dilution, 7 points, n = 2) from Lumit HMGB1 (Human/Mouse) immunoassay kit (W6110, Promega) and dispensed in a 96-well white-wall transparent-bottom working plate (353377, Falcon). After 30 min, 3 h and 24 h, aliquots from the intermediate plate (tested compounds) were transferred to the working plate. […] The plate was shaken for 1 min and incubated for 1 h at room temperature. […] The luminescence signal was collected throughout the visible range (360–700 nm). The data were analyzed using GraphPad Prism 10.

The mark [4] stands for this setting: 2D monolayer, Table S1 series (with LMB033).
Setting [5] is: monolayer (2D), Table S2 series (with LMB002).

Where two headings read alike, the source gives them in different places. Non-standard residues stand in square brackets, D forms with d. Residues, ends and D or L forms follow the SMILES beside them. Orn = NCCC[C@H](N)C(=O)O

The term IC50 denotes the concentration that inhibits the measured activity by half. For `CC(C)C[C@@H]1NC(=O)[C@H](CCCN)NC(=O)[C@H](C(C)C)NC(=O)[C@@H]2CCCN2C(=O)[C@@H](Cc2ccccc2)NC(=O)[C@H](CC(C)C)NC(=O)[C@H](CCCN)NC(=O)[C@H](C(C)C)NC(=O)[C@@H]2CCCN2C(=O)[C@@H](Cc2ccccc2)NC1=O` [Gramicidin S, gramicidin S] (cyclo(V[Orn]L[dF]PV[Orn]L[dF]P)), the IC50 at 10 min is 12.9 ± 0.4 µM in data set [1] (setting [4]), 15.4 ± 0.1 µM in data set [1] (setting [5]) and 14.3 ± 11.6 µM in data set [2] (10 mins incubation). Moreover, the values for the IC50 at 1 h in data set [1] (setting [4]) and in data set [1] (setting [5]) were 11.6 ± 0.1 µM and 12.7 ± 0.2 µM, respectively. Moreover, the figures for the IC50 at 24 h in data set [1] (setting [4]), in data set [1] (setting [5]) and in data set [2] (24 hrs incubation) were 8.3 ± 0.2 µM, 10.4 ± 0.1 µM and 12.9 ± 1.1 µM, respectively. Also, the half-maximal inhibitory concentration (IC50) at 72 h in data set [1] (setting [4]) is 8.4 ± 0.7 µM; in data set [1] (setting [5]), 11.1 ± 0.1 µM; in data set [2] (72 hrs incubation), 9 ± 1.1 µM. Also, the IC50 in the data set with HeLa spheroids (10 min) was found to be 2900 ± 1500 nM; in the data set with HeLa spheroids (24 h), 2900 ± 1600 nM. In addition, the “HMGB1 detected in the supernatant” value in data set [3] (30 min post-treatment, interpolated from calibration curve) came out at 50 ng/mL; in data set [3] (at 3 h, constant up to 24 h) it was 10 ng/mL.
